# Test: logP by HPLC on reversed-phase column (C 18), EEC Directive 79/831 Annex V.A8
# Format: physicochemical
# Conditions: C 18, 40° C., 0.1% aqueous formic acid and acetonitrile gradient
# Experimental: Temperature: 40° C.; Mobile phases: 0.1% aqueous formic acid and acetonitrile; linear gradient from 10% acetonitrile to 90% acetonitrile.
# Calibration was carried out using unbranched alkan-2-ones (comprising 3 to 16 carbon atoms) with known logP values (determination of the logP values by the retention times using linear interpolation between two successive alkanones).
row,Structure (SMILES),LogP
1,O=C(c1ccco1)N(Cc1ncc(C(F)(F)F)cc1Cl)C1CC1 [Compound 1],3.2
2,CC(c1ncc(C(F)(F)F)cc1Cl)N(C(=O)c1ccco1)C1CC1 (centres unmarked) [Compound 2],3.6
3,Cc1ccoc1C(=O)N(C1CC1)C(C)c1ncc(C(F)(F)F)cc1Cl (centres unmarked) [Compound 4],4.22
4,Cc1cc(C(=O)N(C2CC2)C(C)c2ncc(C(F)(F)F)cc2Cl)c(C(F)(F)F)o1 (centres unmarked) [Compound 7],5.19
5,CC(c1ncc(C(F)(F)F)cc1Cl)N(C(=O)c1sccc1I)C1CC1 (centres unmarked) [Compound 12],5.09
6,CC(c1ncc(C(F)(F)F)cc1Cl)N(C(=O)c1ccsc1I)C1CC1 (centres unmarked) [Compound 16],4.95
7,Cc1ncoc1C(=O)N(Cc1ncc(C(F)(F)F)cc1Cl)C1CC1 [Compound 20],2.85
8,Cc1ncoc1C(=O)N(C1CC1)C(C)c1ncc(C(F)(F)F)cc1Cl (centres unmarked) [Compound 21],3.22
9,Cc1nc(C(=O)N(C2CC2)C(C)c2ncc(C(F)(F)F)cc2Cl)c(C)o1 (centres unmarked) [Compound 23],3.46
10,Cc1nc(C(F)F)c(C(=O)N(C2CC2)C(C)c2ncc(C(F)(F)F)cc2Cl)s1 (centres unmarked) [Compound 27],4.34
11,Cc1nc(C(F)(F)F)c(C(=O)N(C2CC2)C(C)c2ncc(C(F)(F)F)cc2Cl)s1 (centres unmarked) [Compound 30],4.80
12,Cc1cc(C(=O)N(C2CC2)C(C)c2ncc(C(F)(F)F)cc2Cl)nn1C (centres unmarked) [Compound 33],3.15
13,CC(c1ncc(C(F)(F)F)cc1Cl)N(C(=O)c1cn(C)nc1C(F)F)C1CC1 (centres unmarked) [Compound 35],3.78
14,Cn1cc(C(=O)N(Cc2cc(C(F)(F)F)cc(Cl)n2)C2CC2)c(C(F)F)n1 [Compound 37],3.1
15,CC(c1ncc(C(F)(F)F)cc1Cl)N(C(=O)c1cn(C)nc1C(F)(F)F)C1CC1 (centres unmarked) [Compound 42],4.01
16,Cc1nn(C)c(F)c1C(=O)N(C1CC1)C(C)c1ncc(C(F)(F)F)cc1Cl (centres unmarked) [Compound 46],3.67
17,CCC(c1cc(C(F)(F)F)cc(Cl)n1)N(C(=O)c1c(C)nn(C)c1F)C1CC1 (centres unmarked) [Compound 47],2.95
18,COC(=O)C(c1ncc(C(F)(F)F)cc1Cl)N(C(=O)c1c(C)nn(C)c1F)C1CC1 (centres unmarked) [Compound 48],2.83
19,Cc1nn(C)cc1C(=O)N(C1CC1)C(C)c1ncc(C(F)(F)F)cc1Cl (centres unmarked) [Compound 56],2.79
20,Cc1cc(C(=O)N(C2CC2)C(C)c2ncc(C(F)(F)F)cc2Cl)no1 (centres unmarked) [Compound 65],3.63
21,O=C(c1ccno1)N(Cc1ncc(C(F)(F)F)cc1Cl)C1CC1 [Compound 71],3.72
22,Cn1cc(C(=O)N(Cc2ncc(C(F)(F)F)cc2Cl)C2CCCC2)c(C(F)F)n1 [Compound 79],3.68
23,Cn1cc(C(=O)N(Cc2ncc(C(F)(F)F)cc2Cl)C2CCCC2)c(C(F)(F)F)c1 [Compound 82],4.15
24,Cc1cc(C(=O)N(Cc2ncc(C(F)(F)F)cc2Cl)C2CC(C)CC(C)(C)C2)c(C)o1 (centres unmarked) [Compound 83],5.9

# More lines, now with the values ahead:
row,LogP,Structure (SMILES)
1,3.78,Cc1ccoc1C(=O)N(Cc1ncc(C(F)(F)F)cc1Cl)C1CC1 [Compound 3]
2,4.26,Cc1cc(C(=O)N(Cc2ncc(C(F)(F)F)cc2Cl)C2CC2)c(C(F)(F)F)o1 [Compound 6]
3,3,Cc1occc1C(=O)N(Cc1ncc(C(F)(F)F)cc1Cl)C1CC1 [Compound 8]
4,4.17,O=C(c1ccsc1I)N(Cc1ncc(C(F)(F)F)cc1Cl)C1CC1 [Compound 15]
5,3.55,Cn1cc(C(=O)N(Cc2ncc(C(F)(F)F)cc2Cl)C2CC2)c(C(F)(F)F)c1 [Compound 17]
6,3.11,Cc1nc(C(=O)N(Cc2ncc(C(F)(F)F)cc2Cl)C2CC2)c(C)o1 [Compound 22]
7,3.86,Cc1nc(C(F)(F)F)c(C(=O)N(Cc2ncc(C(F)(F)F)cc2Cl)C2CC2)s1 [Compound 25]
8,3.41,Cc1nc(C(F)F)c(C(=O)N(Cc2ncc(C(F)(F)F)cc2Cl)C2CC2)s1 [Compound 26]
9,3.15,Cc1ncc(C(=O)N(Cc2ncc(C(F)(F)F)cc2Cl)C2CC2)s1 [Compound 29]
10,2.43,COc1nn(C)cc1C(=O)N(Cc1ncc(C(F)(F)F)cc1Cl)C1CC1 [Compound 39]
11,3.26,Cn1cc(C(=O)N(Cc2ncc(C(F)(F)F)cc2Cl)C2CC2)c(C(F)(F)F)n1 [Compound 41]
12,2.82,Cn1cc(C(=O)N(Cc2ncc(C(F)(F)F)cc2Cl)C2CC2)c(I)n1 [Compound 43]
13,2.53,Cc1nn(C)cc1C(=O)N(Cc1ncc(C(F)(F)F)cc1Cl)C1CC1 [Compound 55]
14,3.92,Cn1ncc(C(=O)N(Cc2ncc(C(F)(F)F)cc2Cl)C2CC2)c1Cl [Compound 57]
15,3.15,CCn1nc(C)c(C(=O)N(Cc2ncc(C(F)(F)F)cc2Cl)C2CC2)c1F [Compound 58]
16,3.11,CCc1nn(C)c(F)c1C(=O)N(Cc1ncc(C(F)(F)F)cc1Cl)C1CC1 [Compound 59]
17,2.75,CCOc1nn(C)cc1C(=O)N(Cc1ncc(C(F)(F)F)cc1Cl)C1CC1 [Compound 60]
18,3.55,O=C(c1ccnn1-c1ccccc1)N(Cc1ncc(C(F)(F)F)cc1Cl)C1CC1 [Compound 63]
19,3.32,Cc1cc(C(=O)N(Cc2ncc(C(F)(F)F)cc2Cl)C2CC2)no1 [Compound 64]
20,3,Cc1noc(C)c1C(=O)N(Cc1ncc(C(F)(F)F)cc1Cl)C1CC1 [Compound 68]
21,4.48,Cc1onc(-c2ccc(Cl)cc2)c1C(=O)N(Cc1ncc(C(F)(F)F)cc1Cl)C1CC1 [Compound 69]
22,3.32,COc1nn(C)cc1C(=O)N(Cc1ncc(C(F)(F)F)cc1Cl)C1CCCC1 [Compound 80]
23,4.25,Cc1nc(C(F)F)c(C(=O)N(Cc2ncc(C(F)(F)F)cc2Cl)C2CCCC2)s1 [Compound 81]
